Each structure is given as a SMILES string. Calls of active or inactive are those of the source. The calls are words filed in the database; no cut-off is given here.

In data set [1] the test system is Rattus norvegicus. As to the kind of experiment: The compound was tested per os dose of 30 mg/kg for 4 hours for maximal electroshock test (MES) on rats; MES= 0/4. The data set is classed as functional.
The target of data set [2] is Sigma non-opioid intracellular receptor 1 (Homo sapiens) (UniProt Q99720). As to the kind of experiment: Ratio between the Ki(nM)values of sigma-2 and sigma-1. Type of data set: functional. The note with it: Cavia porcellus.
Chain of Sigma non-opioid intracellular receptor 1 (Homo sapiens) (Q99720 whole entry): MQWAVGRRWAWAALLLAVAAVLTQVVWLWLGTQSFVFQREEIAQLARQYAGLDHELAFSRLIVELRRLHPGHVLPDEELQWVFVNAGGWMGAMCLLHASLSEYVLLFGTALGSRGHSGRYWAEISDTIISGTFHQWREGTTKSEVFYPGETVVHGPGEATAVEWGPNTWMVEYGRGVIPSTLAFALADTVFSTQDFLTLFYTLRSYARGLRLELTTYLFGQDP
Data set [3] concerns Mus musculus. The data set is described as follows: Time of peak effect in mice following i.p. administration. The data set is classed as functional.
In data set [4] the test system is Mus musculus. As to the kind of experiment: The compound was tested for anticonvulsant activity in Maximal electroshock seizure test (MES) for 30 min in mice(ip); activity at 30 mg/kg. More on the design: dose 30 mg/kg. The data set is classed as functional, organism-based. A general note: In the maximal electroshock model the usual endpoint is tonic extension of the hind limbs.

Data set [5] relates to Rattus norvegicus. As to the kind of experiment: The compound was tested per os dose of 30 mg/kg for 4 hours for rotarod toxicity; 0/4. The data set is classed as functional. A general note: The rotarod test checks motor coordination on a turning rod.
For data set [6], the system named is Rattus norvegicus. As to the kind of experiment: The compound was tested per os dose of 30 mg/kg for 1 hour for maximal electroshock test (MES) on rats; MES= 1/4. Type of data set: functional.
Data set [7] relates to Rattus norvegicus. The data set is described as follows: The compound was tested per os dose of 30 mg/kg for 2 hours for rotarod toxicity; 0/4. The data set is classed as functional.
Data set [8] concerns Mus musculus. The data set is described as follows: The compound was determined for the dose (mg/kg) by rotarod test at the time of peak neurotoxic effect in mice on ip administration. Type of data set: functional.
Data set [9] has as its system Mus musculus. The data set is described as follows: The compound was tested for anticonvulsant activity in subcutaneous pentylenetetrazole seizure test (sc Met) for 30 min in mice; no activity or toxicity at 300 mg/kg. The data set is classed as functional, organism-based. Set-up: dose 300 mg/kg.
The test system of data set [10] is Rattus norvegicus. The data set is described as follows: The compound was tested per os dose of 30 mg/kg for 2 hours for maximal electroshock test (MES) on rats; MES= 0/4. The data set is classed as functional.
Data set [11] deals with Rattus norvegicus. The data set is described as follows: The compound was tested per os dose of 30 mg/kg for 0.5 hours for maximal electroshock test (MES) on rats; MES= 2/4. Type of data set: functional.
In data set [12] the test system is Mus musculus. The data set is described as follows: The compound was tested to inhibit 50% of induced subcutaneous pentylenetetrazole seizure in mice on ip administration. Type of data set: functional.
Data set [13] has as its system Rattus norvegicus. As to the kind of experiment: The compound was tested per os dose of 30 mg/kg for 0.5 hours for rotarod toxicity; 0/4. The data set is classed as functional.
In data set [14] the test system is Mus musculus. The data set is described as follows: The compound was tested for anticonvulsant activity in subcutaneous pentylenetetrazole seizure test (sc Met) for 4 hr in mice; no activity or toxicity at 300 mg/kg. Type of data set: functional, organism-based. Set-up: dose 300 mg/kg.
The nature of data set [15]: The compound was tested for neurologic toxicity (rotarod) test for 4 hr in mice; no activity or toxicity at 300 mg/kg. Type of data set: organism-based. More on the design: dose 300 mg/kg. The conditions noted are these: mouse, in vivo.
In data set [16] the test system is Rattus norvegicus. As to the kind of experiment: The compound was tested per os dose of 30 mg/kg for 0.25 hours for rotarod toxicity; 0/4. The data set is classed as functional.
Data set [17] deals with Mus musculus. The data set is described as follows: The compound was tested to inhibit 50% of induced maximal electroshock seizure in mice on ip administration. Type of data set: functional.
Data set [18] deals with Rattus norvegicus. As to the kind of experiment: The compound was tested for the effective oral dose to inhibit 50% of the anticonvulsant in rats.(value in parenthesis indicate 95% confidence limits). The data set is classed as functional.
For data set [19], the target named is Sigma 2 receptor. The data set is described as follows: Affinity on sigma 2 receptor using [3H]- DTG as radioligand.
Data set [20] is described as follows: The compound was tested for neurologic toxicity (rotarod) test for 30 min in mice; no activity or toxicity at 300 mg/kg. The data set is classed as organism-based. More on the design: dose 300 mg/kg. The conditions noted are these: mouse, in vivo, 0.5 h.
The nature of data set [21]: The compound was tested for time of peak effect (TPE) in hours for its toxicity in mice on ip administration. The note with it: mouse, in vivo. The data set is classed as organism-based.
The test system of data set [22] is Rattus norvegicus. The data set is described as follows: The compound was tested per os dose of 30 mg/kg for 0.25 hours for maximal electroshock test on rats; MES= 3/4. The data set is classed as functional.
The subject of data set [23] is Mus musculus. As to the kind of experiment: The compound was tested for anticonvulsant activity in Maximal electroshock seizure test (MES) for 4 hr in mice(ip); no activity or toxicity at 300 mg/kg. Type of data set: functional, organism-based. Set-up: dose 300 mg/kg.
Data set [24] has as its system Rattus norvegicus. As to the kind of experiment: The compound was tested per os dose of 30 mg/kg for 1 hour for rotarod toxicity; 0/4. Type of data set: functional.
The test system of data set [25] is Mus musculus. As to the kind of experiment: The compound was tested for anticonvulsant activity in subcutaneous pentylenetetrazole seizure test (sc Met) for 4 hr in mice; active at 300 mg/kg. More on the design: dose 300 mg/kg. The data set is classed as functional, organism-based.
Data set [26] concerns Rattus norvegicus. The data set is described as follows: The compound was tested per os dose of 25 mg/kg for 2 hours for maximal electroshock test on rats; MES= 3/4. Type of data set: functional.
Data set [27] relates to Rattus norvegicus. The data set is described as follows: The compound was tested for the effective oral dose to inhibit 50% of the anticonvulsant in rats.(Value in parenthesis indicate 95% confidence limits). Type of data set: functional.
In data set [28] the test system is Rattus norvegicus. As to the kind of experiment: The compound was tested per os dose of 25 mg/kg for 0.5 hours for rotarod toxicity; 0/4. Type of data set: functional.
In data set [29] the test system is Rattus norvegicus. As to the kind of experiment: The compound was tested per os dose of 25 mg/kg for 4 hours for maximal electroshock test on rats; MES= 2/4. The data set is classed as functional.
Data set [30] can be described thus: The compound was determined for the dose (mg/kg) by rotarod test at the time of peak neurotoxic effect in mice on ip administration. The note with it: mouse, in vivo. Type of data set: ADME, organism-based.
The subject of data set [31] is Mus musculus. As to the kind of experiment: Inhibition of s.c. pentylenetetrazole induced seizure in mice following i.p. administration. The data set is classed as functional.
Data set [32] in a line: The compound was tested for the toxic dose on oral administration. (Value in parenthesis indicate 95% confidence limits). Type of data set: ADME. The conditions noted are these: rat.
The subject of data set [33] is Rattus norvegicus. The data set is described as follows: The compound was tested per os dose of 25 mg/kg for 4 hours for rotarod toxicity; 0/4. The data set is classed as functional.
Data set [34] has as its system Mus musculus. The data set is described as follows: The compound was tested for anticonvulsant activity in subcutaneous pentylenetetrazole seizure test (sc Met) for 30 min in mice; active at 100 mg/kg. More on the design: dose 100 mg/kg. Type of data set: functional, organism-based.
In data set [35] the test system is Rattus norvegicus. As to the kind of experiment: The compound was tested per os dose of 25 mg/kg for 0.5 hours for maximal electroshock test on rats; MES= 2/4. Type of data set: functional.
Data set [36] can be described thus: Protective index value is the ratio between ED50 and TD50. Type of data set: functional.
Data set [37] has as its system Rattus norvegicus. As to the kind of experiment: The compound was tested per os dose of 25 mg/kg for 0.25 hours for rotarod toxicity; 0/4. Type of data set: functional.
Data set [38] in a line: The compound was tested for neurologic toxicity (rotarod) test for 30 min in mice; active at 30 mg/kg. The note with it: mouse, in vivo, 0.5 h. More on the design: dose 30 mg/kg. The data set is classed as organism-based.
Data set [39] concerns Rattus norvegicus. The data set is described as follows: The compound was tested per os dose of 25 mg/kg for 1 hour for maximal electroshock test on rats; MES= 4/4. Type of data set: functional.
The subject of data set [40] is Mus musculus. The data set is described as follows: The compound was tested for anticonvulsant activity in Maximal electroshock seizure test (MES) for 4 hr in mice(ip); active at 100 mg/kg. The data set is classed as functional, organism-based. More on the design: dose 100 mg/kg.
Data set [41] relates to Rattus norvegicus. As to the kind of experiment: The compound was tested per os dose of 25 mg/kg for 0.25 hours for maximal electroshock test on rats; MES= 2/4. Type of data set: functional.
Data set [42] in a line: The compound was tested for neurologic toxicity (rotarod) test for 4 hours in mice; active at 30 mg/kg. The conditions noted are these: mouse, in vivo. The data set is classed as organism-based. More on the design: dose 30 mg/kg.
The test system of data set [43] is Mus musculus. The data set is described as follows: The compound was tested for anticonvulsant activity in Maximal electroshock seizure test for 30 min in mice(ip); active at 30 mg/kg. Type of data set: functional, organism-based. Set-up: dose 30 mg/kg.
In data set [44] the test system is Rattus norvegicus. The data set is described as follows: The compound was tested per os dose of 25 mg/kg for 2 hours for rotarod toxicity; 0/4. Type of data set: functional.
Data set [45] has as its system Mus musculus. The data set is described as follows: The compound was tested to inhibit 50% of induced maximal electroshock seizure in mice on ip administration. Type of data set: functional.
The subject of data set [46] is Rattus norvegicus. The data set is described as follows: The compound was tested per os dose of 25 mg/kg for 1 hour for rotarod toxicity; 0/4. The data set is classed as functional.

Turning to `CCC(=O)c1ccc2c(c1)sc(=O)n2C(=O)CC`, the Activity in [1] was 0; in [3] it was 0.25 h; in data set [5], 0; in data set [6], 1; in data set [7], 0; in [10] it was 0. Moreover, the Activity in [11] was found to be 2; in [13] it was 0; in data set [16] it was 0; in [22], 3; in data set [24] it was 0. Also, the Ratio in [2] was found to be 11. Moreover, the MES result in data set [4] and in data set [23] was “activity at 30 mg/kg” throughout. For the same compound, in data set [8], the TD50 was 145 mg/kg. For the same compound, the scMet entry in data set [9] and in [14] was “No activity or toxicity at 300 mg/kg” each time. The figures for the ED50 in data set [12], in data set [17] and in [18] were greater than 300 mg/kg, 19.4 mg/kg and 32.4 mg/kg, respectively. Also, the Rotarod toxicity result in data set [15] and in data set [20] was “No activity or toxicity at 300 mg/kg” in each case. This compound also showed a Ki in [19] of 670 nM. Moreover, the Toxicity in [21] stood at 0.25 h.
In the case of `Cn1c(=O)sc2ccccc21`, the scMet result in data set [25] and in [34] was “active at 100 mg/kg” throughout. Also, the Protected/Tested stood at 3 in [26]; 2 in data set [29]; 2 in data set [35]; 4 in [39]; 2 in [41]. In addition, the figures for the ED50 in data set [27], in [31] and in data set [45] were 16.2 mg/kg, greater than 100 mg/kg and 24.2 mg/kg, respectively. This compound displayed an Activity in data set [3] of 0.25 h. The “No. of animals exhibiting toxicity / Number of animals tested” value in data set [28], in data set [33], in data set [37], in [44] and in [46] was 0 throughout. Moreover, the TD50 turned out to be 55.2 mg/kg in [30] and 140 mg/kg in data set [32]. For the same compound, the PI in [36] worked out at 8.6. For the same compound, the Rotarod toxicity entry in [38] and in [42] was “active at 30 mg/kg” in each case. For the same compound, the MES result in data set [40] and in data set [43] was “active at 100 mg/kg” in each case. Moreover, in data set [21], the Toxicity stood at 0.25 h.

Broadly, the TD50 is the 50% point of the dose-response relation for the toxic effect studied. Broadly, the ED50 is the dose that gives a 50% effect, or the effect in half of the subjects. A word on the Ki: it is a dissociation constant, usually derived from enzyme kinetics or from competition with a known ligand. Low values mean a stronger hold on the target, high ones a looser hold on the target.

Values taken from ChEMBL document CHEMBL1131315, “Synthesis and anticonvulsant activity of 2(3H)-benzoxazolone and 2(3H)-benzothiazolone derivatives” (J Med Chem, 1998).
